From article PMC11224111, “Optimizing the pharmacokinetics of an ^211At-labeled RGD peptide with an albumin-binding moiety via the administration of an albumin-binding inhibitor” (European Journal of Nuclear Medicine and Molecular Imaging, 2024)
Where two headings read alike, the source gives them in different places. Marks after values point to notes of the source that are not given here.

Legend:
[1] = Biodistribution of [^211At]1 and [^125I]2 in normal mice with ibuprofen or IPBA as albumin-binding inhibitor; conditions: 4 h after administration
Method: To evaluate the effects of albumin-binding inhibitors in normal mice, [^211At]1 (37 kBq) and [^125I]2 (37 kBq) were intravenously coadministered. […] The total blood albumin (1.1 µmol) in normal mice was calculated from the albumin concentration (3.0 g/dL ≈ 455 µM) in blood, which was informed from Japan SLC, Inc., total blood volume (2.5 mL) as 8% of body weight, and the molecular weight of albumin as 66,000 g/mol. […]
Table S1. Biodistribution of radioactivity 4 h after administration of [^211At]1 and [^125I]2 in normal mice.

[2] = mouse, in vivo; cited from earlier work
[3] = IPBA 10 eq at 1 h postinjection
[4] = ibuprofen 10 eq at 1 h postinjection

Radioactivity, Neck ([1]; IPBA 2 eq at 1 h postinjection): 0.32 (0.10) % injected activity | Radioactivity, Stomach ([1]; IPBA 2 eq at 1 h postinjection): 1.21 (0.07)^ * % injected activity | Radioactivity, L. intestine ([1]; IPBA 5 eq at 1 h postinjection): 0.87 (0.25) % injected activity per gram | Radioactivity, Neck ([1]; IPBA 5 eq at 1 h postinjection): 0.07 (0.02)^ a % injected activity | Radioactivity, S. intestine ([1]; IPBA 5 eq at 1 h postinjection): 1.33 (0.14) % injected activity per gram | Radioactivity, Stomach ([1]; IPBA 5 eq at 1 h postinjection): 1.11 (0.34)^ **,^ a % injected activity | Radioactivity, Kidney [1, 3]: 3.60 (0.43) % injected activity per gram | Radioactivity, Neck [1, 3]: 0.03 (0.02)^ b, c, d % injected activity | Radioactivity, Stomach [1, 3]: 0.94 (0.12)^ ** % injected activity | Radioactivity, Kidney [1, 4]: 3.10 (0.24) % injected activity per gram | Radioactivity, Muscle [1, 4]: 1.19 (0.07) % injected activity per gram | Radioactivity, Neck [1, 4]: 0.36 (0.12)^ *,^ a % injected activity | Radioactivity, Pancreas [1, 4]: 1.78 (0.09) % injected activity per gram | Radioactivity, Stomach [1, 4]: 1.16 (0.03)^ * % injected activity | Radioactivity, Bone ([1]; vehicle at 1 h postinjection): 1.84 (0.12) % injected activity per gram | Radioactivity, Brain ([1]; vehicle at 1 h postinjection): 0.38 (0.09) % injected activity per gram | Radioactivity, Heart ([1]; vehicle at 1 h postinjection): 4.05 (0.98) % injected activity per gram | Radioactivity, Kidney ([1]; vehicle at 1 h postinjection): 3.32 (0.15) % injected activity per gram | Radioactivity, L. intestine ([1]; vehicle at 1 h postinjection): 1.59 (0.38) % injected activity per gram | Radioactivity, Liver ([1]; vehicle at 1 h postinjection): 2.51 (0.07) % injected activity per gram | Radioactivity, Muscle ([1]; vehicle at 1 h postinjection): 1.28 (0.06) % injected activity per gram | Radioactivity, Neck ([1]; vehicle at 1 h postinjection): 0.13 (0.03)^ * % injected activity | Radioactivity, Pancreas ([1]; vehicle at 1 h postinjection): 1.81 (0.05) % injected activity per gram | Radioactivity, Spleen ([1]; vehicle at 1 h postinjection): 2.11 (0.08) % injected activity per gram | Radioactivity, Stomach ([1]; vehicle at 1 h postinjection): 0.80 (0.12) % injected activity
Substance: Ga-DOTA-K([^125I]IPBA)-c(RGDfK) [[^125I]2]
Radioactivity, Blood ([1]; IPBA 2 eq at 1 h postinjection): 7.26 (0.34)^ ***, a, b % injected activity per gram | Radioactivity, Bone ([1]; IPBA 2 eq at 1 h postinjection): 1.22 (0.11) ^a, b % injected activity per gram | Radioactivity, Brain ([1]; IPBA 2 eq at 1 h postinjection): 0.20 (0.03)^ *,^ a % injected activity per gram | Radioactivity, Heart ([1]; IPBA 2 eq at 1 h postinjection): 2.49 (0.13)^ **,^ a % injected activity per gram | Radioactivity, Kidney ([1]; IPBA 2 eq at 1 h postinjection): 3.46 (0.17)^ * % injected activity per gram | Radioactivity, L. intestine ([1]; IPBA 2 eq at 1 h postinjection): 1.14 (0.31)^ ** % injected activity per gram | Radioactivity, Liver ([1]; IPBA 2 eq at 1 h postinjection): 1.58 (0.12)^ a % injected activity per gram | Radioactivity, Lung ([1]; IPBA 2 eq at 1 h postinjection): 4.22 (0.49)^ ***,^ a, b % injected activity per gram | Radioactivity, Muscle ([1]; IPBA 2 eq at 1 h postinjection): 1.02 (0.07)^ *,^ a, b % injected activity per gram | Radioactivity, Pancreas ([1]; IPBA 2 eq at 1 h postinjection): 1.41 (0.10)^ *,^ a, b % injected activity per gram | Radioactivity, S. intestine ([1]; IPBA 2 eq at 1 h postinjection): 1.28 (0.03)^ **,^ a % injected activity per gram | Radioactivity, Spleen ([1]; IPBA 2 eq at 1 h postinjection): 1.15 (0.11)^ *,^ a, b % injected activity per gram | Radioactivity, Blood ([1]; IPBA 5 eq at 1 h postinjection): 2.06 (0.24)^ ***, a, b, c % injected activity per gram | Radioactivity, Bone ([1]; IPBA 5 eq at 1 h postinjection): 0.73 (0.06)^ **,^ a, b, c % injected activity per gram | Radioactivity, Brain ([1]; IPBA 5 eq at 1 h postinjection): 0.15 (0.02)^ a % injected activity per gram | Radioactivity, Heart ([1]; IPBA 5 eq at 1 h postinjection): 0.83 (0.09)^ **,^ a, b, c % injected activity per gram | Radioactivity, Kidney ([1]; IPBA 5 eq at 1 h postinjection): 3.52 (0.08)^ *, b % injected activity per gram | Radioactivity, Liver ([1]; IPBA 5 eq at 1 h postinjection): 1.20 (0.12)^ *,^ a, b, c % injected activity per gram | Radioactivity, Lung ([1]; IPBA 5 eq at 1 h postinjection): 1.92 (0.16)^ **,^ a, b, c % injected activity per gram | Radioactivity, Muscle ([1]; IPBA 5 eq at 1 h postinjection): 0.47 (0.04)^ **,^ a, b, c % injected activity per gram | Radioactivity, Pancreas ([1]; IPBA 5 eq at 1 h postinjection): 0.79 (0.10)^ **,^ a, b, c % injected activity per gram | Radioactivity, Spleen ([1]; IPBA 5 eq at 1 h postinjection): 0.93 (0.58)^ a, b % injected activity per gram | Radioactivity, Blood [1, 3]: 0.95 (0.12)^ **, a, b, c, d % injected activity per gram | Radioactivity, Bone [1, 3]: 0.77 (0.07)^ **,^ a, b, c % injected activity per gram | Radioactivity, Brain [1, 3]: 0.15 (0.03)^ a % injected activity per gram | Radioactivity, Heart [1, 3]: 0.58 (0.10)^ ***,^ a, b, c % injected activity per gram | Radioactivity, L. intestine [1, 3]: 0.98 (0.31) ^*, b % injected activity per gram | Radioactivity, Liver [1, 3]: 0.84 (0.06)^ a, b, c % injected activity per gram | Radioactivity, Lung [1, 3]: 1.33 (0.09)^ ***,^ a, b, c % injected activity per gram | Radioactivity, Pancreas [1, 3]: 0.60 (0.15)^ a, b, c, d % injected activity per gram | Radioactivity, S. intestine [1, 3]: 1.17 (0.13)^ a % injected activity per gram | Radioactivity, Spleen [1, 3]: 1.00 (0.19)^ **,^ a, b % injected activity per gram | Radioactivity, Blood [1, 4]: 10.19 (0.64)^ ***, a % injected activity per gram | Radioactivity, Bone [1, 4]: 1.56 (0.16)^ a % injected activity per gram | Radioactivity, Brain [1, 4]: 0.25 (0.05)^ a % injected activity per gram | Radioactivity, Heart [1, 4]: 3.24 (0.29)^ * % injected activity per gram | Radioactivity, L. intestine [1, 4]: 1.87 (0.66) ^* % injected activity per gram | Radioactivity, Liver [1, 4]: 1.81 (0.24)^ a % injected activity per gram | Radioactivity, Lung [1, 4]: 6.02 (0.99)^ *,^ a % injected activity per gram | Radioactivity, S. intestine [1, 4]: 1.49 (0.12)^ * % injected activity per gram | Radioactivity, Spleen [1, 4]: 1.49 (0.18)^ a % injected activity per gram | Radioactivity, Blood ([1]; vehicle at 1 h postinjection): 13.28 (0.80)^ *** % injected activity per gram | Radioactivity, Lung ([1]; vehicle at 1 h postinjection): 7.38 (0.61)^ * % injected activity per gram | Radioactivity, S. intestine ([1]; vehicle at 1 h postinjection): 1.94 (0.14)^ ** % injected activity per gram | Radioactivity, Blood [2]: 11.80 (0.75) % injected activity per gram | Radioactivity, Bone [2]: 1.50 (0.26) % injected activity per gram | Radioactivity, Brain [2]: 0.29 (0.03) % injected activity per gram | Radioactivity, Heart [2]: 3.81 (0.18) % injected activity per gram | Radioactivity, Kidney [2]: 3.70 (0.65) % injected activity per gram | Radioactivity, L. intestine [2]: 1.20 (0.25) % injected activity per gram | Radioactivity, Liver [2]: 1.96 (0.18) % injected activity per gram | Radioactivity, Lung [2]: 5.60 (0.52) % injected activity per gram | Radioactivity, Muscle [2]: 1.32 (0.16) % injected activity per gram | Radioactivity, Neck [2]: 0.09 (0.02) % injected activity | Radioactivity, Pancreas [2]: 2.05 (0.25) % injected activity per gram | Radioactivity, S. intestine [2]: 1.58 (0.31) % injected activity per gram | Radioactivity, Spleen [2]: 1.61 (0.12) % injected activity per gram | Radioactivity, Stomach [2]: 0.87 (0.11) % injected activity
